# Data reported in ChEMBL document CHEMBL4229562, “Introduction of a Methyl Group Curbs Metabolism of Pyrido[3,4- d]pyrimidine Monopolar Spindle 1 (MPS1) Inhibitors and Enables the Discovery of the Phase 1 Clinical Candidate N2-(2-Ethoxy-4-(4-methyl-4 H-1,2,4-triazol-3-yl)phenyl)-6-methyl- N8-neopentylpyrido[3,4- d]pyrimidine-2,8-diamine …” (J Med Chem, 2018).
# What was measured:
# [1] = AUClast in mouse at 5 mg/kg, po measured after 6 hrs by ESI-LCMS/MS analysis; format: ADME, organism-based; details: in vivo
# [2] = AUClast in rat at 5 mg/kg, po measured after 24 hrs by ESI-LCMS/MS analysis; format: ADME, organism-based; details: in vivo
# [3] = Intrinsic clearance in CD1 mouse liver microsomes assessed per mg protein at 1 uM preincubated for 10 mins followed NADPH/UDP-glucuronic acid addition and measured after 30 mins by LC-MS/MS analysis; format: ADME, microsome; details: 0.5 h
# [4] = Cmax in rat at 5 mg/kg, po by ESI-LCMS/MS analysis; format: ADME, organism-based; parameters: dose 5 mg/kg, route oral; details: in vivo
# [5] = target: T1, Dual specificity protein kinase TTK (Homo sapiens, UniProt P33981)
# T1 sequence (P33981 whole entry): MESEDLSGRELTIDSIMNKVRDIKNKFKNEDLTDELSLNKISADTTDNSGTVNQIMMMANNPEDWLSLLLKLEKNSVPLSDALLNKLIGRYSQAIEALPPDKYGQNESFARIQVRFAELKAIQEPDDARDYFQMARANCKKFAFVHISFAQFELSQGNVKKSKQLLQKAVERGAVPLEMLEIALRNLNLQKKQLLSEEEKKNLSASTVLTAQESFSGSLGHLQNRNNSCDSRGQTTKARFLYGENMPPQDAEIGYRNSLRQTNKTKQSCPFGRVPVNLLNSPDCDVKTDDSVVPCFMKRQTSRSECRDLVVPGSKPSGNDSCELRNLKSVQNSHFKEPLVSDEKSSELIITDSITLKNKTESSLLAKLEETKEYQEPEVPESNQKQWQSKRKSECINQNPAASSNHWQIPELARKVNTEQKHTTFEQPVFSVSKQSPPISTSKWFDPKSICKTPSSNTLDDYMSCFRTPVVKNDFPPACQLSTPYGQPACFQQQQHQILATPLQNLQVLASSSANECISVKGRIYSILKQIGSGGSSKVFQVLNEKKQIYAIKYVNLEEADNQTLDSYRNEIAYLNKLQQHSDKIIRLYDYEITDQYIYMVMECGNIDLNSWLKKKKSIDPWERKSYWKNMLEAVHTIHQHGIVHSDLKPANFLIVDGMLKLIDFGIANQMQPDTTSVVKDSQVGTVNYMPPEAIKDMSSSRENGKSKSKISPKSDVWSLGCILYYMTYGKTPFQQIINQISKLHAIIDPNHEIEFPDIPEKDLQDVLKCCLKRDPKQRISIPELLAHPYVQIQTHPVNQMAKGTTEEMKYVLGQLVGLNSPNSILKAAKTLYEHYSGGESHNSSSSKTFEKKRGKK
# Description: Inhibition of MPS1 autophosphorylation at Thr33/Ser37 in human HCT116 cells after 2 hrs by MSD assay
# [6] = Lipophilicity, log P of the compound; format: physicochemical; details: octanol/water
# [7] = Cmax in mouse at 5 mg/kg, po by ESI-LCMS/MS analysis; format: ADME, organism-based; parameters: dose 5 mg/kg, route oral; details: in vivo
# [8] = Protein binding in mouse plasma; format: ADME, cell-free
# [9] = target: T1, Dual specificity protein kinase TTK; remark: listed apart in the source
# Description: Inhibition of full length human N-terminal 6xHis-tagged MPS1 expressed in baculovirus expression system using 5FAM-H236 peptide as substrate after 60 to 90 mins by caliper assay
# [10] = tested on: Mus musculus; test: Half life in mouse at 5 mg/kg, iv by ESI-LCMS/MS analysis; format: ADME, organism-based; details: in vivo
# [11] = target: CDK2/Cyclin A2 (Homo sapiens, UniProt P24941)
# [12] = Volume of distribution at steady state in mouse at 5 mg/kg, iv by ESI-LCMS/MS analysis; format: ADME, organism-based; details: in vivo, read-out: Vdss
# [13] = Intrinsic clearance in human liver microsomes assessed per mg protein at 1 uM preincubated for 10 mins followed NADPH/UDP-glucuronic acid addition and measured after 30 mins by LC-MS/MS analysis; format: ADME, microsome; details: 0.5 h
# [14] = Clearance in mouse at 5 mg/kg, iv by ESI-LCMS/MS analysis; format: ADME, organism-based; details: in vivo
# [15] = Solubility of the compound in PBS buffer at pH 7.4 by HPLC analysis; format: physicochemical
# [16] = tested on: Mus musculus; test: Oral bioavailability in mouse at 5 mg/kg by ESI-LCMS/MS analysis; format: ADME, organism-based; details: in vivo
# [17] = Volume of distribution at steady state in rat at 5 mg/kg, iv by ESI-LCMS/MS analysis; format: ADME, organism-based; details: in vivo, read-out: Vdss
# [18] = tested on: Rattus norvegicus; test: Half life in rat at 5 mg/kg, iv by ESI-LCMS/MS analysis; format: ADME, organism-based; details: in vivo
# [19] = Clearance in rat at 5 mg/kg, iv by ESI-LCMS/MS analysis; format: ADME, organism-based; details: in vivo
# [20] = tested on: Rattus norvegicus; test: Oral bioavailability in rat at 5 mg/kg by ESI-LCMS/MS analysis; format: ADME, organism-based; details: in vivo
# [21] = Drug metabolism in human liver microsomes assessed as 5-(3-methoxy-4-(8-(neopentylamino)pyrido[3,4-d]pyrimidin-2-ylamino)phenyl)-4-methyl-4H-1,2,4-triazol-3-ol formation at 1 uM preincubated for 10 mins followed NADPH/UDP-glucuronic acid addition and measured after 30 mins by LC-MS/MS analysis; format: ADME, microsome; details: 0.5 h
# [22] = tested on: Rattus norvegicus; test: Half life in rat at 1 mg/kg, iv by ESI-LCMS/MS analysis; format: ADME, organism-based; details: in vivo
# [23] = Volume of distribution at steady state in rat at 1 mg/kg, iv by ESI-LCMS/MS analysis; format: ADME, organism-based; details: in vivo, read-out: Vdss
# [24] = Drug metabolism in human liver microsomes assessed as 1-(2-(2-methoxy-4-(4-methyl-4H-1,2,4-triazol-3-yl)phenylamino)-6-methylpyrido[3,4-d]pyrimidin-8-ylamino)-2,2-dimethylpropan-1-ol formation at 1 uM preincubated for 10 mins followed NADPH/UDP-glucuronic acid addition and measured after 30 mins by LC-MS/MS analysis; format: ADME, microsome; details: 0.5 h
# [25] = Plasma concentration in doxycycline-inducible human DLD-1 cell xenografted mouse model at 25 mg/kg, po administered as single dose and measured after 24 hrs post dose by LC/MS analysis; format: ADME, organism-based
# [26] = AUClast in rat at 5 mg/kg, po measured after 6 hrs by ESI-LCMS/MS analysis; format: ADME, organism-based; details: in vivo
# [27] = Oral bioavailability in dog at 5 mg/kg by ESI-LCMS/MS analysis; format: ADME, organism-based, Canis lupus familiaris; details: in vivo
# [28] = AUClast in dog at 5 mg/kg, po measured after 48 hrs by ESI-LCMS/MS analysis; format: ADME, organism-based, Canis lupus familiaris; details: in vivo
# [29] = Cmax in dog at 5 mg/kg, po by ESI-LCMS/MS analysis; format: ADME, organism-based, Canis lupus familiaris; parameters: dose 5 mg/kg, route oral; details: in vivo
# [30] = tested on: Canis familiaris; test: Half life in dog at 1 mg/kg, iv by ESI-LCMS/MS analysis; format: ADME, organism-based, Canis lupus familiaris; details: in vivo
# [31] = tested on: Canis familiaris; test: Volume of distribution at steady state in dog at 1 mg/kg, iv by ESI-LCMS/MS analysis; format: ADME, organism-based, Canis lupus familiaris; details: in vivo
# [32] = Drug level in human liver microsomes treated with 1 uM N2-(2-Methoxy-4-(4-methyl-4H-1,2,4-triazol-3-yl)phenyl)-N8-neopentylpyrido[3,4-d]pyrimidine-2,8-diamine assessed as compound formation preincubated for 10 mins followed NADPH/UDP-glucuronic acid addition and measured after 30 mins by LC-MS/MS analysis; format: ADME, microsome; details: 0.5 h
# [33] = Drug level in human liver microsomes treated with 1 uM N2-(2-Methoxy-4-(4-methyl-4H-1,2,4-triazol-3-yl)phenyl)-6-methyl-N8-neopentylpyrido[3,4-d]pyrimidine-2,8-diamine assessed as compound formation preincubated for 10 mins followed NADPH/UDP-glucuronic acid addition and measured after 30 mins by LC-MS/MS analysis; format: ADME, microsome; details: 0.5 h
Structure (SMILES),AUC(0-t) at 6 h [1] [µM·h],CLH [3] [µL/min/mg],Cmax [4] [nM],IC50 [5] [nM],logP [6],Cmax [7] [nM],PPB [8] [%],IC50 [9] [nM],Ki [9] [nM],t1/2 [10] [h],IC50 [11] [nM],Ki [11] [nM],Vd [12] [L/kg],CLH [13] [µL/min/mg],clearance [14] [mL/min/kg],solubility [15] [µM],F [16] [%],F [20] [%],further results
CCOc1cc(-c2nncn2C)ccc1Nc1ncc2cc(C)nc(N3CC(C)(C)C3)c2n1,8.11,44.3,1420,37,3.85,2350,99.28,8.9,0.088,1.58,1600,810,2.09,25.2,16.3,31.5,75,72,AUC(0-t) at 24 h [2]: 18.3 µM·h; Vd [17]: 1.88 L/kg; t1/2 [18]: 3.03 h; clearance [19]: 7.35 mL/min/kg
COc1cc(-c2nncn2C)ccc1Nc1ncc2ccnc(NCC(C)(C)C)c2n1,–,81.5,–,3.5,3.6,–,–,–,≤ 0.07,–,16,8,–,92.1,–,–,–,–,Drug metabolism [21]: Metabolite_Detected
CCOc1cc(-c2nncn2C)ccc1Nc1ncc2cc(C)nc(N3CC4(CCOCC4)C3)c2n1,4.78,32.9,1180,37,3.08,3080,98.09,11,0.11,0.66,2500,1300,1.21,9.4,22.6,56.2,63,22,concentration at 24 h [25]: < 10 nM; AUC(0-t) at 6 h [26]: 5.16 µM·h; Vd [17]: 0.89 L/kg; t1/2 [18]: 1.5 h; clearance [19]: 7.59 mL/min/kg
CCOc1cc(-c2nncn2C)ccc1Nc1ncc2cc(C)nc(NCC(C)(C)C)c2n1.Cl.Cl,–,–,–,–,–,–,–,–,–,–,–,–,–,–,–,–,–,–,bioavailability [27]: 100%; AUC(0-t) at 48 h [28]: 147 µM·h; Cmax [29]: 7770 nM; t1/2 [30]: 12 h; Vdss [31]: 1.1 L/kg
COc1cc(-c2nnc(O)n2C)ccc1Nc1ncc2ccnc(NCC(C)(C)C)c2n1,–,–,–,–,–,–,–,–,–,–,–,–,–,–,–,–,–,–,Drug uptake [32]: Active
COc1cc(-c2nncn2C)ccc1Nc1ncc2cc(C)nc(NC(O)C(C)(C)C)c2n1 (centres undefined),–,–,–,–,–,–,–,–,–,–,–,–,–,–,–,–,–,–,Drug uptake [33]: Active

# The next lines start with results.
AUC(0-t) at 6 h [1] [µM·h],CLH [3] [µL/min/mg],Cmax [4] [nM],IC50 [5] [nM],logP [6],Cmax [7] [nM],PPB [8] [%],IC50 [9] [nM],Ki [9] [nM],t1/2 [10] [h],IC50 [11] [nM],Ki [11] [nM],Vd [12] [L/kg],CLH [13] [µL/min/mg],clearance [14] [mL/min/kg],solubility [15] [µM],F [16] [%],F [20] [%],Structure (SMILES),further results
13.8,25.3,1890,23,4.61,2920,99.91,4.7,0.047,3.47,150,77,2.19,15.2,8.4,–,86,92,CCOc1cc(-c2nncn2C)ccc1Nc1ncc2cc(C)nc(N[C@@H](C)C(C)(C)C)c2n1,t1/2 [22]: 4.52 h; Vd [23]: 1.88 L/kg
–,41.1,–,30,3.88,–,–,13,0.13,–,130,65,–,23.8,–,8.6,–,–,COc1cc(-c2nncn2C)ccc1Nc1ncc2cc(C)nc(NCC(C)(C)C)c2n1,Drug metabolism [24]: Metabolite_Detected
